T1: TAK1 kinase domain (residues I31-Q303) of human transforming growth factor-beta-activated kinase 1, as part … (human, UniProt O43318 31-303)
T1 construct: range 31-303; In the crystal this domain is not a separate chain; Its C-terminus (Q303) is fused directly, without linker, to TAB1 H468-P504, giving one polypeptide; It was expressed in baculovirus/Hi5 cells and is unphosphorylated; The N-terminal His6 tag was removed by thrombin; also called TAK1 catalytic kinase domain
T1 sequence (looked up): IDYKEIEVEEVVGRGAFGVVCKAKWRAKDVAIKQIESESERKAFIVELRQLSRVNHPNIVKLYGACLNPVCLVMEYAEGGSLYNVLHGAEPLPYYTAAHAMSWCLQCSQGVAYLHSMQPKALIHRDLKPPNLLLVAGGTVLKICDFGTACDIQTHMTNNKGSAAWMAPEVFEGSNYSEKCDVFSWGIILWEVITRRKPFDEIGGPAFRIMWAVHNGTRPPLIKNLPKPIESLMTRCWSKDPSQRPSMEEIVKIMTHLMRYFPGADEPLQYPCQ


How the values were obtained:
[1] = tested on: picryl chloride-induced ear swelling; conditions: picryl chloride-induced ear swelling mouse model; cited from earlier work
[2] = biological target: T1, TAK1 kinase domain (residues I31-Q303) …; assay: X-ray crystal structure of the TAK1(I31-Q303)/TAB1(H468-P504) chimera (both parts in one fused chain)

binding result [2] | Molecule | effect on inflammation [1]
– | COc1cc(O)c2c(c1)/C=C/C[C@H](O)[C@H](O)C(=O)/C=C\C[C@H](C)OC2=O [5Z-7-oxozeaenol] | relieves inflammation
binds | HSLPPGEDGRVEPYVDFAEFYRLWSVDHGEQSVVTAP (peptide, UniProt Q15750 468-504, looked up, range 468-504; In the crystal this segment is not a separate chain; It is fused directly to the C-terminus of TAK1 I31-Q303; also called Tab1 peptide) | –

Reference: patent US20110171714A1, “CRYSTAL STRUCTURE OF TAK1-TAB1” (VERTEX PHARMACEUTICALS INCORPORATED, priority 2005, published 2011)
